The values that follow come from patent US12459932B2, “KIF18A inhibitors” (AMGEN INC., priority 2018, dated 2025).

The assay addresses T1, Recombinant human KIF18A (1-467 His-tagged) (Homo sapiens, UniProt Q8NI77).
T1 construct: Recombinant human KIF18A (1-467 His-tagged) protein; His
Kind of assay: KIF18A Enzyme Assay: microtubule-stimulated ATPase activity (ADP-Glo). Particulars: 30 nM KIF18A, 30 μg/mL pig microtubules, ATP 75 μM (Km), ADP-Glo luminescence. The class given is biochemical. On the procedure:
KIF18A Enzyme Assay: Microtubule-stimulated ATPase activity assay is used to measure KIF18A enzyme activity after treatment with compound. Compounds were 2-fold serially diluted in DMSO (Sigma Inc) over 22-point concentration range. […] The assay measures ADP formed from the ATPase reaction. […] Read luminescence using EnVision microplate reader with ultra-luminescence module (Perkin Elmer Inc). Concentration-response curve-fitting and IC50 determination was performed using Genedata Screener Software (Standard 15.0.1, Genedata Inc) with a four-parameter logistic regression fit model.
A general note: ADP-Glo turns the ADP formed in a reaction into a luminescent signal.

T1 sequence (Q8NI77 1-467): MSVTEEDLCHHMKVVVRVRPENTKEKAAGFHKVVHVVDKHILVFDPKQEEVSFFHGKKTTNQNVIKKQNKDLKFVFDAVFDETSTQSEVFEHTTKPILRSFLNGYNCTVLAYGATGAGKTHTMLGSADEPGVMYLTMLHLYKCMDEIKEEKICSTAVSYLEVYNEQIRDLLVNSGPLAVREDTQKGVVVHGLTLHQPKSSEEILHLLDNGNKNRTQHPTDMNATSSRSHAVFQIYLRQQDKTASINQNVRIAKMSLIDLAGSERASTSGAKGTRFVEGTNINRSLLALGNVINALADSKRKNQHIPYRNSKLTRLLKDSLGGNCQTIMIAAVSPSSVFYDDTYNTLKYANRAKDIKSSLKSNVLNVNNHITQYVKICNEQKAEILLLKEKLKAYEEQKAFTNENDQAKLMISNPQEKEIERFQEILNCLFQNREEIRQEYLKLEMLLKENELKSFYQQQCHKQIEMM
T1 sequence (P02550 whole entry partner): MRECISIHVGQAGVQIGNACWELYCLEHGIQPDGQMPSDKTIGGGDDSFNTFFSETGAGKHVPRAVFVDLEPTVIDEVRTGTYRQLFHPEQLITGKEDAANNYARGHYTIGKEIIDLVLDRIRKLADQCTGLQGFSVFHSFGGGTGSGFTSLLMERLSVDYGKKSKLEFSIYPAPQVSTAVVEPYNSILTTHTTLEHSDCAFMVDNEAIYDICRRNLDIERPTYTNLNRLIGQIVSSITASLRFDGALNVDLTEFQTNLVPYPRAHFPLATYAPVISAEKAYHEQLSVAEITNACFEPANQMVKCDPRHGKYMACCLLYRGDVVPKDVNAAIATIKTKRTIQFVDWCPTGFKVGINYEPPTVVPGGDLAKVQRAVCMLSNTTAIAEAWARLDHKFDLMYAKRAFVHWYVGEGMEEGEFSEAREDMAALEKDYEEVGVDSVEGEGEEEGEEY
T1 sequence (P02554 whole entry partner): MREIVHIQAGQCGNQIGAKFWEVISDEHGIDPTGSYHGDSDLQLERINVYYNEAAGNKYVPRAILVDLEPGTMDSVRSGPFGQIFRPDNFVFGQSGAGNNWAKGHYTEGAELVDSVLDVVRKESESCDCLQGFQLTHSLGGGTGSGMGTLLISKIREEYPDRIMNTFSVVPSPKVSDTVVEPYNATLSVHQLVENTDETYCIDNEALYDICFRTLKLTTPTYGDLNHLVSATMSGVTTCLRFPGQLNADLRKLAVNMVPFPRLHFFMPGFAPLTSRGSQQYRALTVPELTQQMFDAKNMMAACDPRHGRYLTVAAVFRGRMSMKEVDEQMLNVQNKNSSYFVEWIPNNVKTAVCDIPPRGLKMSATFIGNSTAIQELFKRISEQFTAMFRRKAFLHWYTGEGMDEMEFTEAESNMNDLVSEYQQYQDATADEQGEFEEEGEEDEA

For `Cc1cc(NC(=O)c2ccc(NS(=O)(=O)[C@H](C)CO)cc2N2CCC3(CC2)CC3)nc(N2CC(F)(F)C2)c1` (single isomer, unassigned) [Example 9-5], the half-inhibitory concentration (IC50) was 17 nM.
Take `CC1(COc2cccc(NC(=O)c3ccc(NS(=O)(=O)CCO)cc3N3CCC4(CC3)CC4)n2)COC1` [Example 16-2, 4-((2-Hydroxyethyl)sulfonamido)-N-(6-((3-methyloxetan-3-yl)methoxy)pyridin-2-yl)-2-(6-azaspiro[2.5]octan-6-yl)benzamide]: the half-inhibitory concentration (IC50) worked out at 50 nM.
With `C[C@@H]1CN(c2cccc(NC(=O)c3ccc(S(=O)(=O)NC(C)(C)CO)cc3N3CCC4(CC3)CC4)n2)CCO1` [Example 1-4, (R)-4-(N-(1-Hydroxy-2-methylpropan-2-yl)sulfamoyl)-N-(6-(2-methylmorpholino)pyridin-2-yl)-2-(6-azaspiro[2.5]octan-6-yl)benzamide] the figure was 46 nM; with `C[C@@H]1CN(c2cccc(NC(=O)c3ccc(S(=O)(=O)C4COC4)cc3N3CCC4(CC3)CC4)n2)CCO1` [Example 2-4, (R)-N-(6-(2-Methylmorpholino)pyridin-2-yl)-4-(oxetan-3-ylsulfonyl)-2-(6-azaspiro[2.5]octan-6-yl)benzamide], 38 nM.
The figure for `CC(C)(O)c1cccc(NC(=O)c2ccc(NS(=O)(=O)C3(C)CC3)cc2N2CCC3(CC2)CC3)n1` [Example 4-1, N-(6-(2-Hydroxypropan-2-yl)pyridin-2-yl)-4-((1-methylcyclopropane)-1-sulfonamido)-2-(6-azaspiro[2.5]octan-6-yl)benzamide] is 128 nM; for `CC1(S(=O)(=O)Nc2ccc(C(=O)Nc3cccc(N4CC(F)C4)n3)c(N3CCC4(CC3)CC4)c2)CC1` [Example 3-16, N-(6-(3-Fluoroazetidin-1-yl)pyridin-2-yl)-4-((1-methylcyclopropane)-1-sulfonamido)-2-(6-azaspiro[2.5]octan-6-yl)benzamide] it is 58 nM.
With `C[C@@H]1CN(c2cccc(NC(=O)c3ccc(N4CCNS4(=O)=O)cc3N3CCC4(CC3)CC4)n2)CCO1` [Example 7-4, (R)-4-(1,1-Dioxido-1,2,5-thiadiazolidin-2-yl)-N-(6-(2-methylmorpholino)pyridin-2-yl)-2-(6-azaspiro[2.5]octan-6-yl)benzamide] the figure was 287 nM.
Turning to `CC1(S(=O)(=O)Nc2ccc(C(=O)Nc3cccc(N4CCCC(C#N)C4)n3)c(N3CCC4(CC3)CC4)c2)CC1` (stereo not drawn) [Example 3-22, N-(6-(3-Cyanopiperidin-1-yl)pyridin-2-yl)-4-((1-methylcyclopropane)-1-sulfonamido)-2-(6-azaspiro[2.5]octan-6-yl)benzamide], the half-maximal inhibitory concentration (IC50) turned out to be 86 nM.
The figure for `CCS(=O)(=O)Nc1ccc(C(=O)Nc2cccc(N3CCO[C@H](C)C3)n2)c(N2CCC3(CC2)CC3)c1` [Example 7-37, (R)-4-(Ethylsulfonamido)-N-(6-(2-methylmorpholino)pyridin-2-yl)-2-(6-azaspiro[2.5]octan-6-yl)benzamide] is 50 nM; for `CC(O)COc1cccc(NC(=O)c2ccc(NS(=O)(=O)CCO)cc2N2CCC3(CC2)CC3)n1` (stereo not drawn) [Example 16-4, 4-((2-Hydroxyethyl)sulfonamido)-N-(6-(2-hydroxypropoxy)pyridin-2-yl)-2-(6-azaspiro[2.5]octan-6-yl)benzamide] it is 115 nM; for `CC1(S(=O)(=O)Nc2ccc(C(=O)Nc3cccc(N4CCC(C#N)CC4)n3)c(N3CCC4(CC3)CC4)c2)CC1` [Example 3-21, N-(6-(4-Cyanopiperidin-1-yl)pyridin-2-yl)-4-((1-methylcyclopropane)-1-sulfonamido)-2-(6-azaspiro[2.5]octan-6-yl)benzamide] it is 91 nM.
The figure for `C[C@@H]1CN(c2cccc(NC(=O)c3ccc(NS(=O)(=O)C4(CO)CC4)cc3N3CCC4(CC3)CC4)n2)CCO1` [Example 10-1, (R)-4-((1-(Hydroxymethyl)cyclopropane)-1-sulfonamido)-N-(6-(2-methylmorpholino)pyridin-2-yl)-2-(6-azaspiro[2.5]octan-6-yl) benzamide] is 57 nM; for `O=C(Nc1cccc(OCCC(F)F)n1)c1ccc(NS(=O)(=O)CCO)cc1N1CCC2(CC1)CC2` [Example 16-9, N-(6-(3,3-Difluoropropoxy)pyridin-2-yl)-4-((2-hydroxyethyl)sulfonamido)-2-(6-azaspiro[2.5]octan-6-yl)benzamide] it is 51 nM.
With `C[C@@H](CO)S(=O)(=O)Nc1ccc(C(=O)Nc2cccc(N3CC(F)C3)n2)c(N2CCC3(CC2)CC3)c1` (single isomer, unassigned) [Example 9-2] the figure was 47.2 nM; with `Cc1cc(NC(=O)c2ccc(NS(=O)(=O)[C@@H](C)CO)cc2N2CCC3(CC2)CC3)nc(N2CCC(F)(F)CC2)c1` (single isomer, unassigned) [Example 9-7], 27 nM; with `C[C@@H]1CN(c2cccc(NC(=O)c3ccc(N4CCCS4(=O)=O)cc3N3CCC4(CC3)CC4)n2)CCO1` [Example 7-3, (R)-4-(1,1-Dioxidoisothiazolidin-2-yl)-N-(6-(2-methylmorpholino)pyridin-2-yl)-2-(6-azaspiro[2.5]octan-6-yl)benzamide], 76 nM.
`CCC(CO)NS(=O)(=O)c1ccc(C(=O)Nc2cccc(N3CCO[C@H](C)C3)n2)c(N2CCC3(CC2)CC3)c1` (stereo partly drawn) [Example 1-9, 4-(N-(1-Hydroxybutan-2-yl)sulfamoyl)-N-(6-((R)-2-methylmorpholino)pyridin-2-yl)-2-(6-azaspiro[2.5]octan-6-yl)benzamide]: the IC50 is 120 nM.
With `Cc1cc(NC(=O)c2ccc(CS(C)(=O)=O)cc2N2CCC3(CC2)CC3)nc(N2CCOCC2)c1` [Example 4-16, N-(4-Methyl-6-morpholinopyridin-2-yl)-4-((methylsulfonyl)methyl)-2-(6-azaspiro[2.5]octan-6-yl)benzamide] the figure was 145 nM; with `C[C@@H]1CN(c2cccc(NC(=O)c3ccc(NS(=O)(=O)N(C)C)cc3N3CCC4(CC3)CC4)n2)CCO1` [Example 7-5, (R)-4-((N,N-Dimethylsulfamoyl)amino)-N-(6-(2-methylmorpholino)pyridin-2-yl)-2-(6-azaspiro[2.5]octan-6-yl)benzamide], 55 nM; with `Cc1cc(NC(=O)c2ccc(NS(=O)(=O)C3(CO)CC3)cc2N2CCC3(CC2)CC3)nc(N2CCC(F)(F)CC2)c1` [Example 10, N-(6-(4,4-Difluoropiperidin-1-yl)-4-methylpyridin-2-yl)-4-((1-(hydroxymethyl)cyclopropane)-1-sulfonamido)-2-(6-azaspiro[2.5]octan-6-yl)benzamide], 122 nM.
For `C[C@@H]1CN(c2cccc(NC(=O)c3ccc(N4CCS4(=O)=O)cc3N3CCC4(CC3)CC4)n2)CCO1` [Example 7-6, (R)-4-(1,1-Dioxido-1,2-thiazetidin-2-yl)-N-(6-(2-methylmorpholino)pyridin-2-yl)-2-(6-azaspiro[2.5]octan-6-yl)benzamide], the IC50 was found to be 98 nM.
With `N=[S@@](=O)(c1ccc(C(=O)Nc2cccc(OCCC(F)(F)F)n2)c(N2CCC3(CC2)CC3)c1)C1CC1` (single isomer, unassigned) [Example 27-2, 2-(6-Azaspiro[2.5]octan-6-yl)-4-(R-cyclopropylsulfonimidoyl)-N-(6-(3,3,3-trifluoropropoxy)-2-pyridinyl)benzamide] the figure was 16 nM; with `Cc1cc(NC(=O)c2ccc(NS(=O)(=O)CCO)cc2N2CCC3(CC2)CC3)nc(C2CCC(F)(F)CC2)c1` [Example 23, N-(6-(4,4-difluorocyclohexyl)-4-methylpyridin-2-yl)-4-((2-hydroxyethyl)sulfonamido)-2-(6-azaspiro[2.5]octan-6-yl)benzamide], 41 nM; with `Cc1cc(NC(=O)c2ccc(NS(=O)(=O)C(C)C)cc2N2CCC3(CC2)CC3)nc(N2CC(F)(F)C2)c1` [Example 7-28, N-(6-(3,3-Difluoroazetidin-1-yl)-4-methylpyridin-2-yl)-4-((1-methylethyl)sulfonamido)-2-(6-azaspiro[2.5]octan-6-yl)benzamide], 68 nM.
With `CC(C)(C)c1cccc(NC(=O)c2ccc(S(C)(=O)=O)cc2N2CCC3(CC2)CC3)n1` [Example 4-6, N-(6-(tert-Butyl)pyridin-2-yl)-4-(methylsulfonyl)-2-(6-azaspiro[2.5]octan-6-yl)benzamide] the figure was 166 nM.
The figure for `C[C@@H]1CN(c2cccc(NC(=O)c3ccc([S@@](=N)(=O)C(C)(C)C)cc3N3CCC4(CC3)CC4)n2)CCO1` (single isomer, unassigned) [Example 13-2] is 182 nM.
Turning to `Cc1cc(NC(=O)c2ccc(NS(=O)(=O)C3CCC3)cc2N2CCC3(CC2)CC3)nc(N2CCC(F)(F)CC2)c1` [Example 7-23, 4-(Cyclobutanesulfonamido)-N-(6-(4,4-difluoropiperidin-1-yl)-4-methylpyridin-2-yl)-2-(6-azaspiro[2.5]octan-6-yl)benzamide], the IC50 is 110 nM.
On to `C[C@@H]1CN(c2cccc(NC(=O)c3ccc(S(=N)(=O)C4CC4)cc3N3CCC4(CC3)CC4)n2)CCO1` (single isomer, unassigned) [Example 12-1], for which the half-inhibitory concentration (IC50) is 85 nM.
Consider `CCS(=O)(=O)Nc1ccc(C(=O)Nc2cc(C)cc(N3CCO[C@H](C)C3)n2)c(N2CCC3(CC2)CC3)c1` [Example 7-8, (R)-4-(Ethylsulfonamido)-N-(4-methyl-6-(2-methylmorpholino)pyridin-2-yl)-2-(6-azaspiro[2.5]octan-6-yl)benzamide], for which the IC50 came out at 72 nM.
With `CC(C)S(=O)(=O)c1ccc(C(=O)Nc2cccc(N3CCO[C@H](C)C3)n2)c(N2CCC3(CC2)CC3)c1` [Example 2, (R)-4-(Isopropylsulfonyl)-N-(6-(2-methylmorpholino)pyridin-2-yl)-2-(6-azaspiro[2.5]octan-6-yl)benzamide] the figure was 34 nM.

What is called IC50 is the concentration at which inhibition is half-maximal.
